Data reported in paper PMC9309146 (Advances in Therapy, 2022).
Like-named read-outs stand apart in the source and are kept apart here.

Legend:
[1] = Population PK; assay type: in vivo, human
[2] = MURANO popPK evaluation ref 24; cited from earlier work
[3] = Exposure-safety analysis; assay type: in vivo, human; conditions: logistic regression
[4] = legacy popPK analysis ref 20; cited from earlier work

CC1(C)CCC(CN2CCN(c3ccc(C(=O)NS(=O)(=O)c4ccc(NCC5CCOCC5)c([N+](=O)[O-])c4)c(Oc4cnc5[nH]ccc5c4)c3)CC2)=C(c2ccc(Cl)cc2)C1 [venetoclax]
rituximab co-administration effect: increase in CL/F ([1]; current analysis): 7%
increase in F1 ([1]; dose decrease from 400 to 200 mg): 11.0%
decrease in F1 ([1]; dose increase from 400 to 800 mg): 9.9%
decrease in F1 ([1]; fasting state relative to low-fat state): 66.2%
V2/F lower ([1]; females than males): 29.7%
effect of obinutuzumab co-administration on CL/F and F1 ([1]; forward addition covariate testing): no effect
increase in F1 ([1]; high-fat meal relative to low-fat): 44.3%
relationship between CL/F and body weight, age, gender, mild or moderate hepatic or renal impairment, CrCL, bilirubin, ALT, AST, albumin, P-glycoprotein or weak CYP3A inhibitors ([1]; human, in vivo): no relationship was observed
increase in F1 ([1]; meal-fed state without specification of fat content): 28.9%
increase in F1 ([1]; moderate-fat meal relative to low-fat): 40.4%
V2/F higher ([1]; patients compared with healthy individuals): 73.3%
decrease in CL/F ([1]; with OATP1B3 hepatic uptake transporter inhibitors): 13.6%
decrease in CL/F ([1]; with moderate CYP3A inhibitors): 13.9%
decrease in CL/F ([1]; with strong CYP3A inhibitors): 82.2%
rituximab co-administration effect: decrease in CL/F [2]: 7%
p value, association of CmeanSS,nominal with probability of SAEs [3]: 0.214
p value, association of CmeanSS,nominal with probability of grade ≥ 3 infections [3]: 0.149
rituximab co-administration effect: increase in CL/F [4]: 22%
